Reference: paper PMC4549706, “Rational Design of Highly Potent and Slow-Binding Cytochrome bc1 Inhibitor as Fungicide by Computational Substitution Optimization” (Scientific Reports, 2015)
Converted amounts (≈) assume the structure as drawn. Where two headings read alike, the source gives them in different places.

Legend:
[1] = test system: Pseudoperonospora cubensis (P. cubensis); assay: Greenhouse fungicidal activity, potted cucumber, downy mildew; format: in vivo
Procedure: For a further validation, the controlling efficacy of compound 18 against downy mildew and powdery mildew disease was tested in greenhouse and field models.
The fungicidal activity of compound 18 against P. cubensis and S. fuliginea was evaluated according to a previously published method[30] and a potted-plant test method was adopted. […]
Greenhouse Fungicidal Activity
The fungicidal activity of compound 18 against P. cubensis and S. fuliginea was evaluated according to a previously published method 17 and a potted-plant test method was adopted. Commercial fungicide AZ was evaluated as a control under the same conditions.
Cucumber seeds were soaked in water for 2 h at 50℃ and then were kept moist for 24 h at 28℃ in an incubator. When the radicles grew to 0.5 cm, the seeds were grown in plastic pots containing a 1:1 (v/v) mixture of vermiculite and peat. At the stage of two leaves, all of the cucumber plants used for inoculations were divided into two groups to test for protective and curative effects. In the protective action, compound 18 and commercial fungicide AZ were sprayed on the leaves before the inoculation. However, the fungal inoculation and chemical spraying are reverse in the […] action.
In the protective action, compound 18 and commercial fungicide AZ were sprayed with a hand spray on the surface of the seed leaves at concentrations of 200, 100, 50, 25, 12.5, 6.25, 3.125, 1.5625 mg/L. After 2 h, inoculations of P. cubensis and S. fuliginea were carried out by spraying a conidial suspension (concentration […]), which was repeated 4 times.
After inoculation, the cucumber seedlings were cultured in a culture room at 25±2℃, 70%~80% relative humidity, and 16L:8D photoperiod for 8 d. In the curative action, the fungal inoculation and chemical spraying were reversed with the protective action. Foliar spray with fungicides to inoculated cucumber plants (before disease expression) till near-run-oﬀ was made on the 7th and 15th day after emergence. The fungicidal activity was evaluated when the nontreated cucumber plant fully developed symptoms. The area of inoculated and treated leaves covered by disease symptoms was assessed and compared to that of nontreated ones to determine the average disease index.
The disease range (i) was visually evaluated on the […]rst true leaf and ranked as a percentage infected area using a rating of 0, 1, 3, 5, 7, or 9, denoting proportions of disease over the whole leaf area of 0%, < 5%, 6–10%, 11–25%, 26–50%, and > 50%, respectively 18.
(§1) The disease index and control effect of compound 18 were calculated via the following […]
(§2) Disease index (%) = ∑(Ni × i)/(N × 9) × 100 […]

S. fuliginea = assay: Field trial, summer squash naturally infected, powdery mildew; format: in vivo, Sphaerotheca fuliginea
Procedure: To further study the potential of compound 18 against powdery mildew and downy mildew, field experiments were conducted during the growing season of summer squash and cucumber. The summer squash plants at a fruiting stage naturally infected by S. fuliginea were used. […] Almost no lesions were observed on the leaves of summer squash. […] Lesions on the leaves of control plants, however, expanded quickly, and intense fungal hyphae could be observed. The curative effect is approximately 64.85% for the AZ-treated (93.75 g.ai/ha) summer squash. In addition, field trials for the treatment of downy mildew of cucumber were also performed. Cucumber plants naturally infected by P. cubensis were used for the study. Fungi on the leaves of control plants expanded quickly and lesions could be observed.
In the field trials, summer squash plants which is naturally infected by S. fuliginea and cucumber plants which is naturally infected by P. cubensis were used.
as §1, §2
Each treatment took up in four plots and was distributed randomly in each […]eld. The relative control effects were assessed after the 7th day of foliar application 18. […]

[2] = target: T1, porcine succinate-cytochrome c reductase (SCR, the mixture of complex II and bc1) (Sus scrofa, UniProt P24964); settings: previous data, cited from earlier work
T1 construct: T h e S C R f r o m p o r c i n e h e a r t; from tissue; host or cells: porcine heart
T1 sequence (P24964 whole entry, one chain of several): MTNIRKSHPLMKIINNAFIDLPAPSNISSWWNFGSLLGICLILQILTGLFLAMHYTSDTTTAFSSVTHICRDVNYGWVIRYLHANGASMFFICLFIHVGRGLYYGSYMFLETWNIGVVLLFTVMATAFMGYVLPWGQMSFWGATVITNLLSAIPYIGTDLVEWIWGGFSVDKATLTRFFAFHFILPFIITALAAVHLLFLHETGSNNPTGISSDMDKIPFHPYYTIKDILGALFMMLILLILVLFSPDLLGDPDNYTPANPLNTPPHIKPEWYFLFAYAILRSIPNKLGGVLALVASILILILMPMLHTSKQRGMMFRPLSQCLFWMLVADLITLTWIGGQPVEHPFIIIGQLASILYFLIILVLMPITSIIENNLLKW

COC=C(C(=O)OC)c1ccccc1CSc1nc2cc(OC)ccc2s1 [Compound 18]
EC90 ([1]; read-out: curative EC90 against P. cubensis): 120 µg/mL (≈ 300 µM)
EC90 ([1]; read-out: protective EC90 against P. cubensis): 4.29 µg/mL (≈ 10.7 µM)
curative effect, powdery mildew (S. fuliginea) (S. fuliginea; 37.5 g.ai/ha, 7th day): approximately 70.92%
curative effect, powdery mildew (S. fuliginea) (S. fuliginea; 75 g.ai/ha, 7th day after foliar application): 74.60%

CO/C=C(/C(=O)OC)c1ccccc1Oc1cc(Oc2ccccc2C#N)ncn1 [AZ, Azoxystrobin, reference compound]
EC90 ([1]; greenhouse, cucumber, sprayed after inoculation, read-out: curative EC90 against P. cubensis): 50.7 µg/mL (≈ 126 µM)
EC90 ([1]; greenhouse, cucumber, sprayed before inoculation, read-out: protective EC90 against P. cubensis): 5.36 µg/mL (≈ 13.3 µM)
Ki ([2]; inhibition of SCR activity): 298 nM
inhibition type with respect to cytochrome c [2]: non-competitive
